Read-outs that look alike come from different tables or passages of the source.
Key:
Type in all cases: in vivo
[1] = tested on: Beet Armyworm (Spodoptera exigua, LAPHEG); test: Bioassays on Beet Armyworm (BAW), 128-well diet tray assay; details: Spodoptera exigua
Procedure, shortened: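 Second-instar larvae, one to five per well, were placed on artificial diet surface-treated with 50 μg/cm^2 compound in 90:10 acetone-water, eight wells per treatment. Trays were held 5–7 days at 25 °C, 14:10 light-dark. Percent mortality per well was averaged over eight wells.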

[2] = tested on: Cabbage Looper (Trichoplusia ni, TRIPNI); test: Bioassays on Cabbage Looper (CL), 128-well diet tray assay; details: Trichoplusia ni
Procedure, shortened: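 Diet tray, 2nd instar, 1–5 larvae/well; 50 μg/cm^2 compound surface-applied (acetone:water 90:10), dried; 8 wells/treatment; 25° C, 14:10 L:D, 5–7 d; % mortality, mean of 8 wells.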

[3] = tested on: Green Peach Aphid (Myzus persicae, MYZUPE); test: Bioassays on Green Peach Aphid (GPA), foliar spray on cabbage seedlings; details: 72 h
Method: Certain molecules disclosed in this document were tested against GPA using procedures described in the following example. In the reporting of the results, the “GPA & YFM Rating Table” was used (See Table Section).
Cabbage seedlings grown in 3-inch pots, with 2-3 small (3-5 cm) true leaves, were used as test substrate. The seedlings were infested with 20-50 GPA (wingless adult and nymph stages) one day prior to chemical application. Four pots with individual seedlings were used for each treatment. Test molecules (2 mg) were dissolved in 2 mL of acetone/methanol (1:1) solvent, forming stock solutions of 1000 ppm test molecule. The stock solutions were diluted 5× with 0.025% Tween 20 in water to obtain the solution at 200 ppm test molecule. A hand-held aspirator-type sprayer was used for spraying a solution to both sides of […] leaves until runoff. Reference plants (solvent check) were sprayed with the diluent only containing 20% by volume of acetone/methanol (1:1) solvent. Treated plants were held in a holding room for three days at approximately 25° C. and ambient relative humidity (RH) prior to grading. Evaluation was conducted by counting the number of live aphids per plant under a microscope. Percent control was measured using Abbott's correction formula (W. S. Abbott, “A Method of Computing the Effectiveness of an Insecticide” J. Econ. Entomol. 18 (1925), pp. 265-267) as follows. Corrected % Control=100*(X−Y)/X where X=No. of live aphids on solvent check plants and Y=No. of live aphids on treated plants. The results are indicated in the table entitled “Table ABC: Biological Results” (See Table Section).

[4] = tested on: Yellow Fever Mosquito (Aedes aegypti, AEDSAE); details: for YFM rating: Table ABC / ABC-DP rating
Procedure, shortened: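 Rating-scale grades reflect larval mortality scored per well after 3 days at room temperature under non-evaporative lids. Larvae (~1 day old, hatched overnight in liver-powder water) were added to six daughter plates per compound, prepared from a 4000 ppm DMSO stock diluted in 90:10 water/acetone.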

[5] = Beet Armyworm, rating class, read-out: BAW
[6] = Cabbage Looper, rating class, read-out: CL
[7] = Green Peach Aphid, rating class, read-out: GPA
[8] = Yellow Fever Mosquito, rating class
[9] = Beet Armyworm, Table ABC / ABC-DP rating, read-out: BAW rating
[10] = Cabbage Looper, Table ABC / ABC-DP rating, read-out: CL rating
[11] = Green Peach Aphid, Table ABC / ABC-DP rating, read-out: GPA rating

| SMILES | pest or weed control at 50 µg/cm2 [1, 9] [%] | pest or weed control at 50 µg/cm2 [2, 10] [%] | pest or weed control at 200 µg/mL [3, 11] [%] | YFM rating ([4]; Yellow Fever Mosquito) | also measured |
| --- | --- | --- | --- | --- | --- |
| Cc1cc(NC(=O)[C@H]2[C@H](c3ccc(F)c(Cl)c3)C2(Cl)Cl)cc(C(=O)Nc2ccc(F)cc2F)c1Cl (relative stereo) [F1185, trans-2-Chloro-5-(2,2-dichloro-3-(3-chloro-4-fluorophenyl)cyclopropane-1-carboxamido)-N-(2,4-difluorophenyl)-3-methylbenzamide] |  |  |  |  | pest or weed control at 50 µg/cm2 ([1]; Table ABC: Biological Results, species BAW, read-out: BAW): 50 to 100%; pest or weed control at 50 µg/cm2 ([2]; Table ABC: Biological Results, species CL, read-out: CL): 50 to 100%; pest or weed control at 200 µg/mL ([3]; Table ABC: Biological Results, species GPA, read-out: GPA): 80 to 100%; YFM ([4]; Table ABC: Biological Results, species YFM): A (80–100) |
| Nc1c(F)ccc(NC(=O)c2cc(NC(=O)[C@H]3[C@H](c4ccc(Cl)cc4)C3(Cl)Cl)ccc2Cl)c1F (relative stereo) [F1593, trans-N-(3-Amino-2,4-difluorophenyl)-2-chloro-5-(2,2-dichloro-3-(4-chlorophenyl)cyclopropane-1-carboxamido)benzamide] |  |  |  |  | pest or weed control at 50 µg/cm2 [1, 5]: 50 to 100%; pest or weed control at 50 µg/cm2 [2, 6]: 50 to 100%; pest or weed control at 200 µg/mL [3, 7]: 80 to 100%; YFM [4, 8]: A (80–100) |
| O=C(Nc1ccc(F)c(NC(=O)C(F)F)c1F)c1cc(NC(=O)[C@H]2[C@H](c3ccc(F)cc3)C2(Cl)Cl)ccc1Cl (relative stereo) [F1598, trans-2-Chloro-5-(2,2-dichloro-3-(4-fluorophenyl)cyclopropane-1-carboxamido)-N-(3-(2,2-difluoroacetamido)-2,4-difluorophenyl)benzamide] |  |  |  |  | pest or weed control at 50 µg/cm2 [1, 5]: 50 to 100%; pest or weed control at 50 µg/cm2 [2, 6]: 50 to 100%; pest or weed control at 200 µg/mL [3, 7]: 80 to 100%; YFM [4, 8]: A (80–100) |
| CC(=O)Nc1ccc(F)c(NC(=O)c2cc(NC(=O)[C@H]3[C@H](c4cc(Cl)cc(Cl)c4)C3(Cl)Cl)ccc2Cl)c1 (relative stereo) [F1635, trans-N-(5-Acetamido-2-fluorophenyl)-2-chloro-5-(2,2-dichloro-3-(3,5-dichlorophenyl)cyclopropane-1-carboxamido)benzamide] |  |  |  |  | pest or weed control at 50 µg/cm2 [1, 5]: 50 to 100%; pest or weed control at 50 µg/cm2 [2, 6]: 50 to 100%; pest or weed control at 200 µg/mL [3, 7]: 0 to 80%; YFM [4, 8]: A (80–100) |
| CC(=O)Nc1cccc(F)c1NC(=O)c1cc(NC(=O)[C@H]2[C@H](c3cc(Cl)cc(Cl)c3)C2(Cl)Cl)ccc1Cl (relative stereo) [F1636, trans-N-(2-Acetamido-6-fluorophenyl)-2-chloro-5-(2,2-dichloro-3-(3,5-dichlorophenyl)cyclopropane-1-carboxamido)benzamide] |  |  |  |  | pest or weed control at 50 µg/cm2 [1, 5]: 50 to 100%; pest or weed control at 50 µg/cm2 [2, 6]: 50 to 100%; pest or weed control at 200 µg/mL [3, 7]: 0 to 80%; YFM [4, 8]: A (80–100) |
| O=C(NCC(F)(F)F)c1cc(NC(=O)[C@H]2[C@H](c3ccc(F)c(Cl)c3F)C2(Cl)Cl)ccc1Cl (relative stereo) [F2011, trans-2-Chloro-5-(2,2-dichloro-3-(3-chloro-2,4-difluorophenyl)cyclopropane-1-carboxamido)-N-(2,2,2-trifluoroethyl)benzamide] | 50 to 100 | 50 to 100 | 0 to 80 | A (80–100) |  |
| CCNC(=O)c1c(F)ccc(NC(=O)[C@H]2[C@H](c3ccc(F)c(Cl)c3)C2(Cl)Cl)c1F (relative stereo) [F2016, trans-3-(2,2-Dichloro-3-(3-chloro-4-fluorophenyl)cyclopropane-1-carboxamido)-N-ethyl-2,6-difluorobenzamide] | 50 to 100 | 50 to 100 | 80 to 100 | A (80–100) |  |
| O=C(NCC(F)(F)F)c1c(F)ccc(NC(=O)[C@H]2[C@H](c3ccc(F)c(Cl)c3)C2(Cl)Cl)c1F (relative stereo) [F2017, trans-3-(2,2-Dichloro-3-(3-chloro-4-fluorophenyl)cyclopropane-1-carboxamido)-2,6-difluoro-N-(2,2,2-trifluoroethyl)benzamide] | 50 to 100 | 50 to 100 | 80 to 100 | A (80–100) |  |
| O=C(NCC(F)(F)F)c1c(Cl)ccc(NC(=O)[C@H]2[C@H](c3ccc(F)c(Cl)c3)C2(Cl)Cl)c1Cl (relative stereo) [F2020, trans-2,6-Dichloro-3-(2,2-dichloro-3-(3-chloro-4-fluorophenyl)cyclopropane-1-carboxamido)-N-(2,2,2-trifluoroethyl)benzamide] | 50 to 100 | 50 to 100 | 0 to 80 | A (80–100) |  |
| CCCNC(=O)c1c(F)ccc(NC(=O)[C@H]2[C@H](c3ccc(F)c(Cl)c3)C2(Cl)Cl)c1F (relative stereo) [F2021, trans-3-(2,2-Dichloro-3-(3-chloro-4-fluorophenyl)cyclopropane-1-carboxamido)-2,6-difluoro-N-propylbenzamide] | 50 to 100 | 50 to 100 | 80 to 100 | A (80–100) |  |
| O=C(NCCF)c1c(Cl)ccc(NC(=O)[C@H]2[C@H](c3ccc(F)c(Cl)c3)C2(Cl)Cl)c1Cl (relative stereo) [F2025, trans-2,6-Dichloro-3-(2,2-dichloro-3-(3-chloro-4-fluorophenyl)cyclopropane-1-carboxamido)-N-(2-fluoroethyl)benzamide] | 50 to 100 | 50 to 100 | 0 to 80 | A (80–100) |  |
| O=C(NCCCCl)c1c(Cl)ccc(NC(=O)[C@H]2[C@H](c3ccc(F)c(Cl)c3)C2(Cl)Cl)c1Cl (relative stereo) [F2026, trans-2,6-Dichloro-N-(3-chloropropyl)-3-(2,2-dichloro-3-(3-chloro-4-fluorophenyl)cyclopropane-1-carboxamido)benzamide] | 50 to 100 | 50 to 100 | 0 to 80 | A (80–100) |  |
| O=C(NCCF)c1c(F)ccc(NC(=O)[C@H]2[C@H](c3ccc(F)c(Cl)c3)C2(Cl)Cl)c1F (relative stereo) [F2027, trans-3-(2,2-Dichloro-3-(3-chloro-4-fluorophenyl)cyclopropane-1-carboxamido)-2,6-difluoro-N-(2-fluoroethyl)benzamide] | 50 to 100 | 50 to 100 | 80 to 100 | A (80–100) |  |
| Cc1cc(NC(=O)[C@H]2[C@H](c3ccc(F)c(Cl)c3)C2(Cl)Cl)cc(C(=O)NCC(F)(F)C(F)(F)F)c1Cl (relative stereo) [F2039, trans-2-Chloro-5-(2,2-dichloro-3-(3-chloro-4-fluorophenyl)cyclopropane-1-carboxamido)-3-methyl-N-(2,2,3,3,3-pentafluoropropyl)benzamide] | 50 to 100 | 50 to 100 | 80 to 100 | A (80–100) |  |
| Cc1cc(NC(=O)[C@H]2[C@H](c3ccc(F)c(Cl)c3)C2(Cl)Cl)cc(C(=O)NCCCCl)c1Cl (relative stereo) [F2040, trans-2-Chloro-N-(3-chloropropyl)-5-(2,2-dichloro-3-(3-chloro-4-fluorophenyl)cyclopropane-1-carboxamido)-3-methylbenzamide] | 50 to 100 | 50 to 100 | 0 to 80 | A (80–100) |  |
| Cc1c(Cl)cc(NC(=O)[C@H]2[C@H](c3ccc(F)c(Cl)c3)C2(Cl)Cl)cc1C(=O)NCC(F)(F)F (relative stereo) [F2042, trans-3-Chloro-5-(2,2-dichloro-3-(3-chloro-4-fluorophenyl)cyclopropane-1-carboxamido)-2-methyl-N-(2,2,2-trifluoroethyl)benzamide] | 50 to 100 | 50 to 100 | 80 to 100 | A (80–100) |  |

— patent US20250228239A1, “MOLECULES HAVING PESTICIDAL UTILITY, AND INTERMEDIATES, COMPOSITIONS, AND PROCESSES, RELATED THERETO” (priority 2024, published 2025)
